# Results: patent publication US10167262B2, “Herbicidal substituted 3-arylpyrazoles” (FMC CORPORATION, priority 2014, dated 2019)
# Assays:
# Experiment in all cases: Test D postemergence controlled growth environment test, plant response rating 0-100
# Format in all cases: in vivo
# [1] = test system: winter wheat (Triticum aestivum)
# Source text: (§1) Seeds of plant species selected from bluegrass (annual bluegrass, Poa annua), blackgrass (Alopecurus myosuroides), canarygrass (Phalaris minor), chickweed (common chickweed, Stellaria media), galium (catchweed bedstraw, Galium aparine), downy bromegrass (Bromus tectorum), field violet (Viola arvensis), green foxtail (Setaria viridis), deadnettle (henbit deadnettle, Lamium amplexicaule), Italian ryegrass (Lolium multiflorum), kochia (Kochia scoparia), lambsquarters (Chenopodium album), oilseed rape (Brassica napus), pigweed (Amaranthus retroflexus), Russian thistle (Salsola kali), spring barley (Hordeum vulgare), spring wheat (Triticum aestivum), wild buckwheat (Polygonum convolvulus), wild mustard (Sinapis arvensis), wild oat (Avena fatua), windgrass (Apera spica-venti), winter barley (Hordeum vulgare), and winter wheat (Triticum aestivum) were planted in pots containing Redi-Earth® planting medium (Scotts Company, 14111 Scottslawn Road, Marysville, Ohio 43041) comprising spaghnum peat moss, vermiculite, wetting agent and starter nutrients and treated with postemergence applications of test chemicals formulated in a non-phytotoxic solvent mixture which included a surfactant. Plants ranged in height from 2 to 18 cm (1- to 4-leaf stage). Treated plants and controls were maintained in a controlled growth environment for 14 days after which time all species were compared to controls and visually evaluated. Plant response ratings, summarized in Table D, are based on a scale of 0 to 100 where 0 is no effect and 100 is complete control. A dash (-) response means no test result.
# [2] = test system: Italian ryegrass (Lolium multiflorum)
# Source text: as §1
# [3] = test system: wild buckwheat (Polygonum convolvulus)
# Source text: as §1
# [4] = test system: field violet (Viola arvensis)
# Source text: as §1
# [5] = test system: deadnettle (henbit deadnettle, Lamium amplexicaule)
# Source text: as §1
# [6] = test system: winter barley (Hordeum vulgare)
# Source text: as §1
# [7] = test system: pigweed (Amaranthus retroflexus)
# Source text: as §1
# [8] = test system: chickweed (common chickweed, Stellaria media)
# Source text: as §1
# [9] = test system: wild mustard (Sinapis arvensis)
# Source text: as §1
# [10] = test system: canarygrass (Phalaris minor)
# Source text: as §1
# wild oat (Avena fatua) = test system: wild oat (Avena fatua)
# Source text: as §1
# [11] = test system: lambsquarters (Chenopodium album)
# Source text: as §1
# [12] = test system: windgrass (Apera spica-venti)
# Source text: as §1
# [13] = test system: oilseed rape (Brassica napus)
# Source text: as §1
# [14] = test system: bluegrass (annual bluegrass, Poa annua)
# Source text: as §1
# [15] = test system: galium (catchweed bedstraw, Galium aparine)
# Source text: as §1
# [16] = test system: spring wheat (Triticum aestivum)
# Source text: as §1
# kochia (Kochia scoparia) = test system: kochia (Kochia scoparia)
# Source text: as §1
# [17] = test system: blackgrass (Alopecurus myosuroides)
# Source text: as §1
# [18] = test system: Russian thistle (Salsola kali)
# Source text: as §1
structure (smiles),measurement,setting,value
"Clc1cc(Cl)cc(-c2n[nH]cc2C(=NN2CCCC2)c2ccccc2)c1 [Compound 30, N-[[3-(3,5-dichlorophenyl)-1H-pyrazol-4-yl]phenylmethylene]-1-pyrrolidinamine]","Plant response rating, Wheat, Winter",[1]; 16 g ai/ha,0
same,"Plant response rating, Wheat, Winter",[1]; 31 g ai/ha,0
same,"Plant response rating, Wheat, Winter",[1]; 62 g ai/ha,0
same,"Plant response rating, Wheat, Winter",[1]; 125 g ai/ha,0
same,"Plant response rating, Wheat, Winter",[1]; 250 g ai/ha,90
same,"Plant response rating, Ryegrass, Italian",[2]; 16 g ai/ha,0
same,"Plant response rating, Ryegrass, Italian",[2]; 31 g ai/ha,0
same,"Plant response rating, Ryegrass, Italian",[2]; 62 g ai/ha,0
same,"Plant response rating, Ryegrass, Italian",[2]; 125 g ai/ha,0
same,"Plant response rating, Ryegrass, Italian",[2]; 250 g ai/ha,10
same,"Plant response rating, Buckwheat, Wild",[3]; 16 g ai/ha,0
same,"Plant response rating, Buckwheat, Wild",[3]; 31 g ai/ha,0
same,"Plant response rating, Buckwheat, Wild",[3]; 62 g ai/ha,5
same,"Plant response rating, Buckwheat, Wild",[3]; 125 g ai/ha,15
same,"Plant response rating, Buckwheat, Wild",[3]; 250 g ai/ha,35
same,"Plant response rating, Field Violet",[4]; 16 g ai/ha,0
same,"Plant response rating, Field Violet",[4]; 31 g ai/ha,0
same,"Plant response rating, Field Violet",[4]; 62 g ai/ha,10
same,"Plant response rating, Field Violet",[4]; 125 g ai/ha,10
same,"Plant response rating, Field Violet",[4]; 250 g ai/ha,15
same,"Plant response rating, Deadnettle",[5]; 16 g ai/ha,0
same,"Plant response rating, Deadnettle",[5]; 31 g ai/ha,0
same,"Plant response rating, Deadnettle",[5]; 62 g ai/ha,0
same,"Plant response rating, Deadnettle",[5]; 125 g ai/ha,10
same,"Plant response rating, Deadnettle",[5]; 250 g ai/ha,10
same,"Plant response rating, Barley, Winter",[6]; 16 g ai/ha,0
same,"Plant response rating, Barley, Winter",[6]; 31 g ai/ha,0
same,"Plant response rating, Barley, Winter",[6]; 62 g ai/ha,0
same,"Plant response rating, Barley, Winter",[6]; 125 g ai/ha,0
same,"Plant response rating, Barley, Winter",[6]; 250 g ai/ha,0
same,"Plant response rating, Pigweed",[7]; 16 g ai/ha,25
same,"Plant response rating, Pigweed",[7]; 31 g ai/ha,60
same,"Plant response rating, Pigweed",[7]; 62 g ai/ha,70
same,"Plant response rating, Pigweed",[7]; 125 g ai/ha,80
same,"Plant response rating, Pigweed",[7]; 250 g ai/ha,90
same,"Plant response rating, Chickweed",[8]; 16 g ai/ha,0
same,"Plant response rating, Chickweed",[8]; 31 g ai/ha,0
same,"Plant response rating, Chickweed",[8]; 62 g ai/ha,10
same,"Plant response rating, Chickweed",[8]; 125 g ai/ha,40
same,"Plant response rating, Chickweed",[8]; 250 g ai/ha,75
same,"Plant response rating, Mustard, Wild",[9]; 16 g ai/ha,60
same,"Plant response rating, Mustard, Wild",[9]; 31 g ai/ha,60
same,"Plant response rating, Mustard, Wild",[9]; 62 g ai/ha,60
same,"Plant response rating, Mustard, Wild",[9]; 125 g ai/ha,70
same,"Plant response rating, Mustard, Wild",[9]; 250 g ai/ha,85
same,"Plant response rating, Canarygrass",[10]; 16 g ai/ha,0
same,"Plant response rating, Canarygrass",[10]; 31 g ai/ha,0
same,"Plant response rating, Canarygrass",[10]; 62 g ai/ha,0
same,"Plant response rating, Canarygrass",[10]; 125 g ai/ha,0
same,"Plant response rating, Canarygrass",[10]; 250 g ai/ha,10
same,"Plant response rating, Oat, Wild",wild oat (Avena fatua); 16 g ai/ha,0
same,"Plant response rating, Oat, Wild",wild oat (Avena fatua); 31 g ai/ha,0
same,"Plant response rating, Oat, Wild",wild oat (Avena fatua); 62 g ai/ha,0
same,"Plant response rating, Oat, Wild",wild oat (Avena fatua); 125 g ai/ha,0
same,"Plant response rating, Oat, Wild",wild oat (Avena fatua); 250 g ai/ha,0
same,"Plant response rating, Lambsquarters",[11]; 16 g ai/ha,0
same,"Plant response rating, Lambsquarters",[11]; 31 g ai/ha,0
same,"Plant response rating, Lambsquarters",[11]; 62 g ai/ha,30
same,"Plant response rating, Lambsquarters",[11]; 125 g ai/ha,40
same,"Plant response rating, Lambsquarters",[11]; 250 g ai/ha,50
same,"Plant response rating, Windgrass",[12]; 16 g ai/ha,0
same,"Plant response rating, Windgrass",[12]; 31 g ai/ha,0
same,"Plant response rating, Windgrass",[12]; 62 g ai/ha,0
same,"Plant response rating, Windgrass",[12]; 125 g ai/ha,0
same,"Plant response rating, Windgrass",[12]; 250 g ai/ha,0
same,"Plant response rating, Oilseed Rape",[13]; 16 g ai/ha,30
same,"Plant response rating, Oilseed Rape",[13]; 31 g ai/ha,50
same,"Plant response rating, Oilseed Rape",[13]; 62 g ai/ha,60
same,"Plant response rating, Oilseed Rape",[13]; 125 g ai/ha,85
same,"Plant response rating, Oilseed Rape",[13]; 250 g ai/ha,0
same,"Plant response rating, Bluegrass",[14]; 16 g ai/ha,0
same,"Plant response rating, Bluegrass",[14]; 31 g ai/ha,0
same,"Plant response rating, Bluegrass",[14]; 62 g ai/ha,0
same,"Plant response rating, Bluegrass",[14]; 125 g ai/ha,0
same,"Plant response rating, Bluegrass",[14]; 250 g ai/ha,0
same,"Plant response rating, Galium",[15]; 16 g ai/ha,0
same,"Plant response rating, Galium",[15]; 31 g ai/ha,0
same,"Plant response rating, Galium",[15]; 62 g ai/ha,0
same,"Plant response rating, Galium",[15]; 125 g ai/ha,0
same,"Plant response rating, Galium",[15]; 250 g ai/ha,0
same,"Plant response rating, Wheat, Spring",[16]; 16 g ai/ha,0
same,"Plant response rating, Wheat, Spring",[16]; 31 g ai/ha,0
same,"Plant response rating, Wheat, Spring",[16]; 62 g ai/ha,0
same,"Plant response rating, Wheat, Spring",[16]; 125 g ai/ha,0
same,"Plant response rating, Wheat, Spring",[16]; 250 g ai/ha,0
same,"Plant response rating, Kochia",kochia (Kochia scoparia); 16 g ai/ha,0
same,"Plant response rating, Kochia",kochia (Kochia scoparia); 31 g ai/ha,10
same,"Plant response rating, Kochia",kochia (Kochia scoparia); 62 g ai/ha,30
same,"Plant response rating, Kochia",kochia (Kochia scoparia); 125 g ai/ha,40
same,"Plant response rating, Kochia",kochia (Kochia scoparia); 250 g ai/ha,70
same,"Plant response rating, Blackgrass",[17]; 16 g ai/ha,0
same,"Plant response rating, Blackgrass",[17]; 31 g ai/ha,0
same,"Plant response rating, Blackgrass",[17]; 62 g ai/ha,0
same,"Plant response rating, Blackgrass",[17]; 125 g ai/ha,10
same,"Plant response rating, Blackgrass",[17]; 250 g ai/ha,10
same,"Plant response rating, Russian Thistle",[18]; 16 g ai/ha,0
same,"Plant response rating, Russian Thistle",[18]; 31 g ai/ha,10
same,"Plant response rating, Russian Thistle",[18]; 62 g ai/ha,20
same,"Plant response rating, Russian Thistle",[18]; 125 g ai/ha,40
same,"Plant response rating, Russian Thistle",[18]; 250 g ai/ha,50
